Experimental data taken from ChEMBL document CHEMBL4422631, “Investigation of stereoisomeric bisarylethenesulfonic acid esters for discovering potent and selective PTP1B inhibitors” (Eur J Med Chem, 2019).

Columns and labels:
[1] = target: T1, Tyrosine-protein phosphatase non-receptor type 1 (Homo sapiens, UniProt P18031); test: Inhibition of PTP1B (unknown origin) using pNPP as substrate after 30 mins
T1 sequence (P18031 whole entry): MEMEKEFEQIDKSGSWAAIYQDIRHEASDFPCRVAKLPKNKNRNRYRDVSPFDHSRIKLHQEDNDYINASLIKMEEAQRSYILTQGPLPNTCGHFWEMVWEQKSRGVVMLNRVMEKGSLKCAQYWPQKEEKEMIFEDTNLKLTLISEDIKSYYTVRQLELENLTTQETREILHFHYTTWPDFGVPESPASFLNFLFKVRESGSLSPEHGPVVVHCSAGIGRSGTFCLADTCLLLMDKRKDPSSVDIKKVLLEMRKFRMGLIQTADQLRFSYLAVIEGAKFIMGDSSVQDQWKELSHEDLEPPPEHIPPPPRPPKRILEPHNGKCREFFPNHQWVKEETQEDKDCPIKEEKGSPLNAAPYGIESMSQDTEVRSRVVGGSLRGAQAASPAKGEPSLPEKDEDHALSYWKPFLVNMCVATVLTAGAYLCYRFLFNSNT

[2] = Apparent permeability of compound at 10 uM at pH 7.4 after 12 hrs by PAMPA; assay type: ADME
[3] = target: T2, Tyrosine-protein phosphatase non-receptor type 2 (Homo sapiens, UniProt P17706); test: Inhibition of TCPTP (unknown origin) using pNPP as substrate after 30 mins
T2 sequence (P17706 whole entry): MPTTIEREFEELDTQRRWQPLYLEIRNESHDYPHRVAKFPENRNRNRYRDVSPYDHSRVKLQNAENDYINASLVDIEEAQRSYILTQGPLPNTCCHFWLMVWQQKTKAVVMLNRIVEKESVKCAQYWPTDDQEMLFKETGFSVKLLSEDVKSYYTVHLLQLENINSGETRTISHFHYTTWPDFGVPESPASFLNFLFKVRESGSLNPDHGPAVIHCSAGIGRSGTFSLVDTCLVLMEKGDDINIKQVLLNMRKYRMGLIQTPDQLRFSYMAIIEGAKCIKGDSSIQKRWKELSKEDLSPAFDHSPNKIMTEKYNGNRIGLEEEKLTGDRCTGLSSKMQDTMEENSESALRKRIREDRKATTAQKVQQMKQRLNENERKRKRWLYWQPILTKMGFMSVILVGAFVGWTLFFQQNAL

[4] = target: T3, Tyrosine-protein phosphatase non-receptor type 11 (Homo sapiens, UniProt Q06124); test: Inhibition of SHP2 (unknown origin) using pNPP as substrate after 30 mins
T3 sequence (Q06124 whole entry): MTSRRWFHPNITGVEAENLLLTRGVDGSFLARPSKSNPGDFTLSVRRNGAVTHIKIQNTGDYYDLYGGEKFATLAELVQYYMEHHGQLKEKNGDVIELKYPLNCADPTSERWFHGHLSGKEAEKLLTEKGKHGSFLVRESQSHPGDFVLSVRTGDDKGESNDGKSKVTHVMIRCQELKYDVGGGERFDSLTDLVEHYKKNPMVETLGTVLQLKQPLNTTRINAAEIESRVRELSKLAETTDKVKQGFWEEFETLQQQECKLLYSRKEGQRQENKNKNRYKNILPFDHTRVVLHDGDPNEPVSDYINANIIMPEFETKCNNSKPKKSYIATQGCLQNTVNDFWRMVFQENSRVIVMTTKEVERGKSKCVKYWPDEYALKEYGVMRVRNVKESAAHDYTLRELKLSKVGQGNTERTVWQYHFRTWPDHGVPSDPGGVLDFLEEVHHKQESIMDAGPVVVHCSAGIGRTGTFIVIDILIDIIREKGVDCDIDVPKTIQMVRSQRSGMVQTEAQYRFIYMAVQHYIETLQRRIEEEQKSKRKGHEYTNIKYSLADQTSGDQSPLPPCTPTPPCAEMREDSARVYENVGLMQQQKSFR

[5] = target: T4, Tyrosine-protein phosphatase non-receptor type 1 (Homo sapiens) (UniProt P18031); test: Inhibition of PTP1B in human HepG2 cells assessed as increase in insulin stimulated glucose uptake at 5 uM preincubated for 24 hrs followed by insulin addition and measured after 10 mins by 2-NBDG dye-based FACS analysis relative to control; assay type: cell-based; set-up: scale not given: the % may be the effect or the level left
T4 sequence (whole entry): T1 sequence (P18031 whole entry)

[6] = target: T4, Tyrosine-protein phosphatase non-receptor type 1 (Homo sapiens); test: Inhibition of PTP1B in human HepG2 cells assessed as increase in insulin stimulated glucose uptake at 10 uM preincubated for 24 hrs followed by insulin addition and measured after 10 mins by 2-NBDG dye-based FACS analysis relative to control; assay type: cell-based; set-up: scale not given: the % may be the effect or the level left
[7] = target: T4, Tyrosine-protein phosphatase non-receptor type 1 (Homo sapiens); test: Inhibition of PTP1B in human HepG2 cells assessed as increase in insulin stimulated glucose uptake at 20 uM preincubated for 24 hrs followed by insulin addition and measured after 10 mins by 2-NBDG dye-based FACS analysis relative to control; assay type: cell-based; set-up: scale not given: the % may be the effect or the level left

With `CCOS(=O)(=O)/C=C/c1ccc(O[C@@H]2CN(C(=O)C(=O)Nc3ccc(Oc4ccc(Br)cc4)cc3)C[C@@H]2Oc2ccc(CCS(=O)(=O)OCC)cc2)cc1` as the compound, how does the IC50 [1] read?
The IC50 was 1510 nM.

For `CCOS(=O)(=O)/C=C/c1ccc(O[C@@H]2CN(C(=O)C(=O)Nc3ccc(Oc4ccc(F)cc4)cc3)C[C@@H]2Oc2ccc(CCS(=O)(=O)OCC)cc2)cc1`, which IC50 [1] is on record?
Its IC50 is 1220 nM.

Which IC50 [1] does the source give for `CCOS(=O)(=O)/C=C/c1ccc(O[C@@H]2CN(C(=O)c3ccc(Oc4ccc(C(C)C)cc4)cc3)C[C@H]2Oc2ccc(/C=C/S(=O)(=O)OCC)cc2)cc1` here?
Its IC50 is 3360 nM.

Which IC50 [1] does the source give for `CCOS(=O)(=O)/C=C/c1ccc(O[C@@H]2CN(Cc3ccc(Oc4ccc(C(C)C)cc4)cc3)C[C@H]2Oc2ccc(/C=C/S(=O)(=O)OCC)cc2)cc1` here?
Its IC50 is 6870 nM.

For `CCOS(=O)(=O)/C=C/c1ccc(O[C@@H]2CN(C(=O)C(=O)Nc3ccc(Oc4ccc(F)cc4)cc3)C[C@H]2Oc2ccc(CCS(=O)(=O)OCC)cc2)cc1`, which IC50 [1] is on record?
Its IC50 is 460 nM.

Which IC50 [1] does the source give for `CCOS(=O)(=O)/C=C/c1ccc(O[C@@H]2CN(C(=O)C(=O)Nc3ccc(Oc4ccc(Cl)cc4)cc3)C[C@@H]2Oc2ccc(CCS(=O)(=O)OCC)cc2)cc1` here?
The IC50 was 1450 nM.

With `CCOS(=O)(=O)/C=C/c1ccc(O[C@@H]2CN(C(=O)C(=O)Nc3ccc(Oc4ccc(C(C)(C)C)cc4)cc3)C[C@@H]2Oc2ccc(CCS(=O)(=O)OCC)cc2)cc1` as the compound, how does the IC50 [1] read?
Its IC50 is 1170 nM.

With `CCOS(=O)(=O)/C=C/c1ccc(O[C@@H]2CN(C(=O)C(=O)Nc3ccc(Oc4ccc(Br)cc4)cc3)C[C@H]2Oc2ccc(CCS(=O)(=O)OCC)cc2)cc1` as the compound, how does the IC50 [1] read?
The IC50 was 440 nM.

Which IC50 [1] does the source give for `CCOS(=O)(=O)/C=C/c1ccc(O[C@@H]2CN(C(=O)C(=O)Nc3ccc(Oc4ccc(Cl)cc4)cc3)C[C@H]2Oc2ccc(CCS(=O)(=O)OCC)cc2)cc1` here?
Its IC50 is 380 nM.

Which Papp at 12 h, 10 µM [2] does the source give for `CCOS(=O)(=O)/C=C/c1ccc(O[C@@H]2CN(C(=O)C(=O)Nc3ccccc3)C[C@H]2Oc2ccc(/C=C/S(=O)(=O)OCC)cc2)cc1` here?
The Papp at 12 h, 10 µM was 1.27 ×10⁻⁶ cm/s.

What about the IC50 [3] of the same compound?
Its IC50 is 7840 nM.

And the IC50 [4]?
Its IC50 is 5650 nM.

And the IC50 [1]?
Its IC50 is 2520 nM.

Which IC50 [1] does the source give for `CCCCCCc1ccc(NC(=O)C(=O)N2C[C@H](Oc3ccc(CCS(=O)(=O)OCC)cc3)[C@H](Oc3ccc(/C=C/S(=O)(=O)OCC)cc3)C2)cc1` here?
The IC50 was 1540 nM.

With `CCc1ccc(CCOc2ccc(CC3SC(=O)NC3=O)cc2)nc1` (stereo unspecified) as the compound, how does the Activity [5] read?
The Activity was 51.1%.

What about the Activity [6] of the same compound?
The Activity was 70.2%.

What about the Activity [7] of the same compound?
Its Activity is 78.9%.

For `CCOS(=O)(=O)/C=C/c1ccc(O[C@@H]2CN(C(=O)c3ccc(Oc4ccccc4)cc3)C[C@H]2Oc2ccc(/C=C/S(=O)(=O)OCC)cc2)cc1`, which IC50 [1] is on record?
Its IC50 is 2950 nM.

For `CCOS(=O)(=O)/C=C/c1ccc(O[C@@H]2CN(C(=O)C(=O)Nc3ccc(Oc4ccc5ccccc5c4)cc3)C[C@@H]2Oc2ccc(CCS(=O)(=O)OCC)cc2)cc1`, which IC50 [1] is on record?
The IC50 was 1260 nM.

What does the source list for `CCOS(=O)(=O)/C=C/c1ccc(O[C@@H]2CNC[C@H]2Oc2ccc(/C=C/S(=O)(=O)OCC)cc2)cc1`?
Papp at 12 h, 10 µM [2]: 0.93 ×10⁻⁶ cm/s; IC50 [3]: 29600 nM; IC50 [4]: 23500 nM; IC50 [1]: 16800 nM

Which IC50 [1] does the source give for `CCOS(=O)(=O)/C=C/c1ccc(O[C@@H]2CN(C(=O)C(=O)Nc3ccc(Oc4ccccc4)cc3)C[C@@H]2Oc2ccc(CCS(=O)(=O)OCC)cc2)cc1` here?
The IC50 was 2790 nM.

With `CCOS(=O)(=O)/C=C/c1ccc(O[C@@H]2CN(C(=O)C(=O)Nc3ccc(Oc4ccccc4)cc3)C[C@H]2Oc2ccc(/C=C/S(=O)(=O)OCC)cc2)cc1` as the compound, how does the IC50 [1] read?
Its IC50 is 1070 nM.

With `CCOS(=O)(=O)/C=C/c1ccc(O[C@@H]2CN(C(=O)C(=O)Nc3ccc(Oc4ccc(C(C)(C)C)cc4)cc3)C[C@H]2Oc2ccc(CCS(=O)(=O)OCC)cc2)cc1` as the compound, how does the IC50 [1] read?
Its IC50 is 430 nM.

For `CCOS(=O)(=O)/C=C/c1ccc(O[C@H]2CNC[C@H]2Oc2ccc(/C=C/S(=O)(=O)OCC)cc2)cc1`, which Papp at 12 h, 10 µM [2] is on record?
Its Papp at 12 h, 10 µM is 0.87 ×10⁻⁶ cm/s.

And the IC50 [3]?
Its IC50 is 47800 nM.

And the IC50 [4]?
The IC50 was 55200 nM.

What about the IC50 [1] of the same compound?
The IC50 was 27400 nM.

With `CCOS(=O)(=O)/C=C/c1ccc(O[C@@H]2CN(Cc3ccc(Oc4ccccc4)cc3)C[C@H]2Oc2ccc(/C=C/S(=O)(=O)OCC)cc2)cc1` as the compound, how does the IC50 [1] read?
Its IC50 is 7420 nM.

For `CCOS(=O)(=O)/C=C/c1ccc(O[C@@H]2CN(C(=O)C(=O)Nc3ccc(Oc4ccc(C(C)C)cc4)cc3)C[C@@H]2Oc2ccc(CCS(=O)(=O)OCC)cc2)cc1`, which IC50 [1] is on record?
The IC50 was 1390 nM.

For `CCOS(=O)(=O)/C=C/c1ccc(O[C@@H]2CN(C(=O)C(=O)Nc3ccc(Oc4ccc(C(C)C)cc4)cc3)C[C@H]2Oc2ccc(/C=C/S(=O)(=O)OCC)cc2)cc1`, which IC50 [1] is on record?
Its IC50 is 420 nM.

Which IC50 [1] does the source give for `CCOS(=O)(=O)/C=C/c1ccc(O[C@@H]2CN(C(=O)c3ccccc3)C[C@H]2Oc2ccc(/C=C/S(=O)(=O)OCC)cc2)cc1` here?
Its IC50 is 7810 nM.

With `CCOS(=O)(=O)/C=C/c1ccc(O[C@@H]2CN(C(=O)Nc3ccc(Oc4ccc(C(C)C)cc4)cc3)C[C@H]2Oc2ccc(/C=C/S(=O)(=O)OCC)cc2)cc1` as the compound, how does the IC50 [1] read?
The IC50 was 1370 nM.

With `CC(C)NCC(O)COc1cccc2ccccc12` (stereo unspecified) [PROPRANOLOL] as the compound, how does the Papp at 12 h, 10 µM [2] read?
The Papp at 12 h, 10 µM was 8.71 ×10⁻⁶ cm/s.

Which IC50 [1] does the source give for `CCOS(=O)(=O)/C=C/c1ccc(O[C@@H]2CN(C(=O)Nc3ccc(Oc4ccccc4)cc3)C[C@H]2Oc2ccc(/C=C/S(=O)(=O)OCC)cc2)cc1` here?
The IC50 was 1930 nM.

With `CCOS(=O)(=O)/C=C/c1ccc(O[C@@H]2CN(C(=O)C(=O)Nc3ccc(Oc4ccc5ccccc5c4)cc3)C[C@H]2Oc2ccc(CCS(=O)(=O)OCC)cc2)cc1` as the compound, how does the IC50 [1] read?
The IC50 was 360 nM.

With `CCOS(=O)(=O)/C=C/c1ccc(O[C@@H]2CN(C(=O)Nc3ccccc3)C[C@H]2Oc2ccc(/C=C/S(=O)(=O)OCC)cc2)cc1` as the compound, how does the IC50 [1] read?
The IC50 was 3510 nM.

Which IC50 [1] does the source give for `CCCCCCc1ccc(NC(=O)C(=O)N2C[C@@H](Oc3ccc(/C=C/S(=O)(=O)OCC)cc3)[C@H](Oc3ccc(CCS(=O)(=O)OCC)cc3)C2)cc1` here?
Its IC50 is 610 nM.

Which IC50 [1] does the source give for `CCOS(=O)(=O)/C=C/c1ccc(O[C@@H]2CN(Cc3ccccc3)C[C@H]2Oc2ccc(/C=C/S(=O)(=O)OCC)cc2)cc1` here?
Its IC50 is 9340 nM.
